Measured values taken from patent US9353082B2, “Pharmaceutical compounds” (BIAL—PORTELA & CA, S.A., priority 2008, dated 2016).
Counter-ions that a name gives are not always drawn.

Molecular target: T1, FAAH (Rattus norvegicus, UniProt P97612)
T1 construct: Frozen brains (without cerebellum) from Wistar rats were used; from tissue; host or cells: Wistar rat brain (without cerebellum), washed membrane pellets
T1 sequence (P97612 1-579): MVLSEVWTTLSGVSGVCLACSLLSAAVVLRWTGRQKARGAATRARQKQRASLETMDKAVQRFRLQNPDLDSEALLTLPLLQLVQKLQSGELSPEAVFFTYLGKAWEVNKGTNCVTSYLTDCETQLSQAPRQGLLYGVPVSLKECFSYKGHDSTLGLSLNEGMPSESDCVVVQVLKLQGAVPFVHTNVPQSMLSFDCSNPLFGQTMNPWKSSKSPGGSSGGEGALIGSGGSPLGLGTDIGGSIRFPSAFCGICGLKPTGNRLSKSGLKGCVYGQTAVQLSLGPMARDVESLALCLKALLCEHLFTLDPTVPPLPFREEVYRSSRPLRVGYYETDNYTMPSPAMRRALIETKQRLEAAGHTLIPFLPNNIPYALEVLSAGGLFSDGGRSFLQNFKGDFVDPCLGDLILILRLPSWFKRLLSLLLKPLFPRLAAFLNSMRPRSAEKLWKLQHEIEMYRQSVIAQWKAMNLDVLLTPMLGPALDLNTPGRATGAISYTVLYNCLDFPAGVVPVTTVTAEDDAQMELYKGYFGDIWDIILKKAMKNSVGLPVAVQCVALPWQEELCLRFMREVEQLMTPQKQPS
Assay: In vitro FAAH activity in rat brain membranes, 3H-AEA substrate, % of control
Type: biochemical, Wistar rats
Settings: low value = strong inhibitor; for In Vitro FAAH activity, 10 uM: 10 uM test compound; for In Vitro FAAH activity, 100 nM: 100 nM test compound
Procedure: 3. Biological Efficacy of Compounds of the Invention The in vitro test was performed according to the protocol described below. The controls for both in vitro and in vivo were the reaction mix minus the test compounds. Therefore, a low value in Table 1 below for the test compounds indicates a strong inhibitor.
The in vitro pharmaceutical FAAH activity was determined according to the following method:
Frozen brains (without cerebellum) from Wistar rats were used, and each brain was homogenized in 15 ml 1 mM MgCL2, […] HEPES pH 7.0 with Potter Elvejhem (8 strokes at 500 rpm). Homogenates were centrifuged for 20 min at 36000 g at 4° C. (Beckman, 70Ti rotor). Pellets were resuspended in 15 ml of the same buffer and centrifuged under the same conditions. Pellets were resuspended in 15 ml of the same buffer and incubated for 15 min at 37° C. after which they were centrifuged for 20 min at 36000 g at 4° C. Each pellet was then resuspended in 15 ml 3 mM MgCl2, 1 mM EDTA, 50 mM Tris pH 7.4 and protein determined with BioRad Protein Assay (BioRad) using a standard curve of BSA (50-250 μg/ml). The membrane suspensions were aliquoted and stored at −80° C.
The FAAH activity was determined using AEA (labelled with 3H in the ethanolamine part of the molecule) as substrate and measuring the 3H-ethanolamine formed. Reaction mix (total volume of 200 up contained: 2 μM AEA (2 μM AEA+5 nM 3H-AEA), 0.1% fatty acid free BSA, 5 μg protein, in 1 mM EDTA, 10 mM Tris pH 7.6 and 10 μM or 0.1 μM compounds. Stock solutions of the compounds to test (10 mM) were prepared in 100% DMSO and the DMSO concentration in the assay was 0.1%. After a 15 min preincubation period at 37° C., reaction was started by the addition of the substrate solution ([…]). Reaction was carried out for 10 min before termination by the addition of 400 μl activated charcoal suspension (8 g charcoal in 32 ml 0.5 M HCl in continuous agitation). After a 30 min incubation period at room temperature with agitation, charcoal was sedimented by centrifugation in microfuge (10 min at 13000 rpm). 200 μl of the supernatant were added to 800 μl Optiphase Supermix scintillation cocktail previously distributed in 24-well plates. Counts per minute (cpm) were determined in Microbeta TriLux scintillation counter (10 min counting or until s=2).
In each assay blanks (no protein, usually below 200 cpm) and controls (no compound) were present. The results are reported in Table 1 as % of control after blank subtraction.

In Vitro FAAH activity, 10 uM | In Vitro FAAH activity, 100 nM | SMILES
62.6 % of control | – | O=C(N1CCOCC1)n1ccnc1 [Compound 1, (1H-imidazol-1-yl)(morpholino)methanone]
11.7 % of control | – | CN(C(=O)n1ccnc1)c1ccccc1 [Compound 2, N-methyl-N-phenyl-1H-imidazole-1-carboxamide]
4.8 % of control | – | O=C(N1CCOCC1)n1cnc(-c2ccccc2)c1 [Compound 3, morpholino(4-phenyl-1H-imidazol-1-yl)methanone]
91.3 % of control | – | O=C(Nc1ccccc1)n1ccc(-c2ccccc2)n1 [Compound 5, N,3-diphenyl-1H-pyrazole-1-carboxamide]
91.1 % of control | – | COc1ccc(NC(=O)n2ccc(-c3ccccc3)n2)cc1 [Compound 6, N-(4-methoxyphenyl)-3-phenyl-1H-pyrazole-1-carboxamide]
0 % of control | 17 % of control | CN(C(=O)n1cncn1)c1ccccc1 [Compound 7, N-methyl-N-phenyl-1H-1,2,4-triazole-1-carboxamide]
13.2 % of control | – | CN(C(=O)n1cccn1)c1ccccc1 [Compound 8, N-methyl-N-phenyl-1H-pyrazole-1-carboxamide]
78.6 % of control | – | O=C(Nc1ccccc1)n1cccn1 [Compound 9, N-phenyl-1H-pyrazole-1-carboxamide]
55 % of control | – | O=C(Nc1ccc(Oc2ccccc2)cc1)n1ccc(-c2ccccc2)n1 [Compound 10, N-(4-phenoxyphenyl)-3-phenyl-1H-pyrazole-1-carboxamide]
82.6 % of control | – | O=C(Nc1ccc(OCc2ccccc2)cc1)n1ccc(-c2ccccc2)n1 [Compound 11, N-(4-(benzyloxy)phenyl)-3-phenyl-1H-pyrazole-1-carboxamide]
86 % of control | – | CN(C(=O)n1ccc(-c2ccccc2)n1)c1ccccc1 [Compound 12, N-methyl-N,3-diphenyl-1H-pyrazole-1-carboxamide]
89.7 % of control | – | O=C(N1CCOCC1)n1ccc(-c2ccccc2)n1 [Compound 13, morpholino(3-phenyl-1H-pyrazol-1-yl)methanone]
66.9 % of control | 103.8 % of control | O=C(Nc1ccc(-c2ccccc2)cc1)n1ccc(-c2ccccc2)n1 [Compound 15, N-(biphenyl-4-yl)-3-phenyl-1H-pyrazole-1-carboxamide]
65 % of control | – | COc1ccc(N(C)C(=O)n2cnc(-c3ccccc3)c2)cc1 [Compound 17, N-(4-methoxyphenyl)-N-methyl-4-phenyl-1H-imidazole-1-carboxamide]
67.9 % of control | – | CN(C(=O)n1cnc2ccccc21)c1ccccc1 [Compound 18, N-methyl-N-phenyl-1H-benzo[d]imidazole-1-carboxamide]
97.3 % of control | – | O=C(Nc1ccccc1)n1ccc(-c2ccc(-c3ccccc3)cc2)n1 [Compound 20, 3-(biphenyl-4-yl)-N-phenyl-1H-pyrazole-1-carboxamide]
79.1 % of control | – | O=C(N1CCOCC1)n1ccc(-c2cccnc2)n1 [Compound 21, morpholino(3-(pyridin-3-yl)-1H-pyrazol-1-yl)methanone hydrochloride]

In Vitro FAAH activity, 10 uM | In Vitro FAAH activity, 100 nM | SMILES
95.8 % of control | – | COc1cccc(NC(=O)n2ccc(-c3ccc(-c4ccccc4)cc3)n2)c1 [Compound 22, 3-(biphenyl-4-yl)-N-(3-methoxyphenyl)-1H-pyrazole-1-carboxamide]
93 % of control | – | COc1ccc(NC(=O)n2ccc(-c3ccc(-c4ccccc4)cc3)n2)cc1 [Compound 23, 3-(biphenyl-4-yl)-N-(4-methoxyphenyl)-1H-pyrazole-1-carboxamide]
22.9 % of control | – | CN(C(=O)n1ccc(-c2cccnc2)n1)c1ccccc1 [Compound 24, N-methyl-N-phenyl-3-(pyridin-3-yl)-1H-pyrazole-1-carboxamide]
99 % of control | – | CN(C(=O)n1ccc(-c2ccc(-c3ccccc3)cc2)n1)c1ccccc1 [Compound 25, 3-(biphenyl-4-yl)-N-methyl-N-phenyl-1H-pyrazole-1-carboxamide]
92.6 % of control | – | CN(C(=O)n1ccnc1-c1ccccc1)c1ccccc1 [Compound 26, N-methyl-N,2-diphenyl-1H-imidazole-1-carboxamide]
0.2 % of control | 71.4 % of control | CN(C(=O)n1cnc(-c2ccc(Cl)cc2)c1)c1ccccc1 [Compound 27, 4-(4-chlorophenyl)-N-methyl-N-phenyl-1H-imidazole-1-carboxamide]
0.7 % of control | 85.1 % of control | COc1ccc(-c2cn(C(=O)N(C)c3ccccc3)cn2)cc1 [Compound 28, 4-(4-methoxyphenyl)-N-methyl-N-phenyl-1H-imidazole-1-carboxamide]
0.1 % of control | 72.5 % of control | CN(C(=O)n1cnc(-c2ccccc2F)c1)c1ccccc1 [Compound 30, 4-(2-fluorophenyl)-N-methyl-N-phenyl-1H-imidazole-1-carboxamide]
0 % of control | 69 % of control | COc1cccc(-c2cn(C(=O)N(C)c3ccccc3)cn2)c1 [Compound 31, 4-(3-methoxyphenyl)-N-methyl-N-phenyl-1H-imidazole-1-carboxamide]
103.1 % of control | – | CN(C(=O)n1cnc(-c2ccc(-c3ccccc3)cc2)c1)c1ccccc1 [Compound 35, 4-(biphenyl-4-yl)-N-methyl-N-phenyl-1H-imidazole-1-carboxamide]
5 % of control | – | COc1ccc(-c2cn(C(=O)N(C)c3ccc(F)cc3)cn2)cc1 [Compound 36, N-(4-fluorophenyl)-4-(4-methoxyphenyl)-N-methyl-1H-imidazole-1-carboxamide]
51.7 % of control | – | O=C(N1CCCc2ccccc21)n1cnc(-c2ccccc2)c1 [Compound 37, (3,4-dihydroquinolin-1(2H)-yl)(4-phenyl-1H-imidazol-1-yl)methanone]
0 % of control | 83.9 % of control | CN(C(=O)n1cnc(-c2ccc(O)cc2)c1)c1ccccc1 [Compound 38, 4-(4-hydroxyphenyl)-N-methyl-N-phenyl-1H-imidazole-1-carboxamide]
0.1 % of control | 88 % of control | CN(C(=O)n1cnc(-c2ccc(Cl)cc2)c1)c1ccc(F)cc1 [Compound 43, 4-(4-chlorophenyl)-N-(4-fluorophenyl)-N-methyl-1H-imidazole-1-carboxamide]
– | 97.8 % of control | O=C(N1CCCc2ccccc21)n1cnc(-c2ccc(F)cc2)c1 [Compound 44, (3,4-dihydroquinolin-1(2H)-yl)(4-(4-fluorophenyl)-1H-imidazol-1-yl)methanone]
– | 83 % of control | CN(C(=O)n1cnc(-c2ccccc2F)c1)c1ccc(F)cc1 [Compound 45, 4-(2-fluorophenyl)-N-(4-fluorophenyl)-N-methyl-1H-imidazole-1-carboxamide]
